In PMC10815619, “Leveraging SARS-CoV-2 Main Protease (M^pro) for COVID-19 Mitigation with Selenium-Based Inhibitors” (International Journal of Molecular Sciences, 2024):
Where two headings read alike, the source gives them in different places.

Target: T1, SARS-CoV-2 M^pro (Severe acute respiratory syndrome coronavirus 2, UniProt P0DTD1)
T1 construct: covers ORF1ab polyprotein residues 3264–3569; N-terminal leader ending in the Mpro autocleavage site (SAVLQ*SGFRK) (N, cleaved yes); made in house; host or cells: Escherichia coli BL21 (DE3), pET100D-Topo vector
Experiment: Fluorescence-based cleavage assay with AFC-peptide substrate, IC50 against M^pro
Type: biochemical
Method: For the determination of half-maximal inhibitory concentrations (IC50) of inhibitors against M^pro, an AFC-Peptide substrate (SAE0180, Merck) was used for a fluorescence-based cleavage assay [66]. The assay was performed in half area 96-well, black, flat-bottomed microtiter plates (Corstar, Corning, Glendale, CA, USA) with a final volume of 125 μL. M^pro (final concentrations of 5–50 nM) was pre-incubated for 1 h at 25 °C with compounds at different concentrations in the assay buffer (PBS, pH 7.5). […] The readings for the different concentrations of the inhibitor compounds incubated with the substrate without M^Pro were measured as a blank. […] The results were plotted as dose inhibition curves using nonlinear regression with a variable slope to determine the IC50 values of inhibitor compounds using GraphPad Prism 9.0.

Row | Compound | IC50 | IC50 (recombinant M^pro 5-50 nM, 1 h pre-incubation at 25 °C, AFC-peptide substrate 12 μM, PBS pH 7.5, mean ± SD (n = 3), read-out: IC50 against M^pro)
1 | Cc1ccc(NC(=O)[Se]c2ccccc2)cc1 [Cmp. 3b] | 1.04 ± 0.047 µM | –
2 | Cc1cc(C)cc(NC(=O)[Se]Cc2ccc(S(N)(=O)=O)cc2)c1 [Cmp. 3c, Se-(4-Sulfamoylbenzyl) (3,5-Dimethylphenyl) Carbamoselenoate] | – | 0.704 µM
